Data taken from a melting point compilation (Tetko et al.; mined from patent text by program, amines drawn as free bases though some values may be those of a salt).

melting point	SMILES
145 to 147 °C	NS(=O)(=O)c1cccc(C2OCCO2)c1
182 °C	CCOC(=O)C1=C(N)NC(C)=C(C(=O)O)C1c1ccccc1-c1ccccc1 (configuration not stated)
194 °C	CCOC(=O)CCc1ccc(NC(=O)c2csc(NC(=O)NCc3ccccc3)n2)cc1
69 to 70 °C	Clc1ccsc1-c1nc(COc2ccc(CCCn3ccnc3)cc2)co1
181 to 183 °C	FC(F)(F)c1cccc2c(-c3ccccc3)c(-c3ccccc3)cnc12
106 to 108 °C	CCCCCN1C(=O)C2(COc3cc4c(cc32)OCO4)c2c(Cl)ccc(Cl)c21 (configuration not stated)
142 to 144 °C	N#Cc1ccc(C(=O)NC(=S)NCCc2ccccc2)cc1
139 to 140 °C	CC(=O)Oc1ccc2c(c1)C(C)c1cc(OC(C)=O)ccc1-2
261 to 263 °C	CCCOc1ccc(S(=O)(=O)Nc2ccc3[nH]ncc3c2)cc1-c1nc2cc(N)c([N+](=O)[O-])cc2c(=O)[nH]1
164 to 168 °C	CCNC(=NS(=O)(=O)c1cccc(C#N)c1)N1CC(CC)C=N1 (configuration not stated)
114 to 115 °C	CC1CS(=O)C(c2cccs2)=NO1 (configuration not stated)
77 to 78 °C	CCOC(=O)Cc1ccc(-c2ccc(-c3ccccc3)cc2)o1
107 to 108 °C	CC(=O)C1CCC2C3CCC4CC(OC(=O)C(F)(F)F)CCC4(C)C3C(=O)CC12C (configuration not stated)
153 °C	CCCCOc1nc(N)c2[nH]c(=O)n(CCCN(CCCN3CCOCC3)Cc3cccc(CC(=O)OC)c3)c2n1
208 to 209 °C	O=C(c1ccc(O)cc1)C12CC3CC(C1)CC(C(=O)c1ccc(O)cc1)(C3)C2
137 to 138 °C	CN(C)C1CCc2oc3ccc(NC(=O)c4ccc(F)cc4)cc3c2C1 (configuration not stated)
83 to 84 °C	CCOc1cc(OCC)c2ccccc2c1O
> 250 °C	CCCc1nc2c(N)nc3ccccc3c2n1CC1(O)CCS(=O)(=O)CC1
167 °C	CC1C(=O)Nc2ccc(Cl)cc2N1C1CC1 (racemic)
184 to 185 °C	O=C(Nc1nc2ccccc2n1CCCN1CCNCC1)c1ccc(C(F)(F)F)cc1
92 to 94 °C	Cc1ccc(CN2C(=O)C(CCO)Oc3ccccc32)cc1 (configuration not stated)
110 °C	CC(=CCc1c(C)c(N=Nc2ccc([N+](=O)[O-])cc2[N+](=O)[O-])c2ccccc2c1O)CCCC(C)CCCC(C)CCCC(C)C (configuration not stated)
137 to 140 °C	CS(=O)(=O)Nc1cccc(Nc2nc(OC3CCCC3)c3nc[nH]c3n2)c1

melting point	SMILES
98 to 100 °C	CCn1cc(-c2ccccc2)c(=O)c(-c2cccc(C(F)(F)F)c2)c1
111 °C	CC(C)(C(=O)c1ccc(Cl)cc1)n1cncn1
> 250 °C	CS(=O)(=O)c1ccc2c(C=C[N+](=O)[O-])c[nH]c2c1
179 to 181 °C	O=C(O)CNC(=O)NC(CSC(=O)Nc1ccccc1)Cc1ccccc1 (configuration not stated)
125 to 128 °C	CCN(CC)c1nc(N)c2ccccc2n1
140 °C	CN(C)C=Nc1c(S(=O)C(F)(F)F)c(-c2ncon2)nn1-c1c(Cl)cc(C(F)(F)F)cc1Cl (configuration not stated)
146 to 148 °C	COc1ccccc1Oc1c(N=[N+]=[N-])nc(N2CCOCC2)nc1OCCOCc1ccccc1
155 °C	CC(C)(C)c1cc(C(C)(CCC(=O)O)c2ccc(O)c(C(C)(C)C)c2)ccc1O
162 °C	O=C1c2c(O)ccc(O)c2C(=O)c2c(NCCN(CCO)C(=O)C(F)(F)F)ccc(NCCN(CCO)C(=O)C(F)(F)F)c21
213 to 215 °C	NC(=O)N1C(=O)C(C(=O)c2cccs2)c2ccncc21 (configuration not stated)
174 to 175 °C	Oc1cccc(-c2cc(-c3ccc(-c4ccccc4)cc3)cc(-c3ccc4ccccc4c3)n2)c1
167 to 169 °C	Cc1c(NC(=O)CC(C)(C)C)c(C)c2c(c1-c1cncnc1)OCC2c1ccc(C(C)C)cc1 (configuration not stated)
109 to 112 °C	CCCCCc1c(-c2ccc3cc(OCc4nnn[nH]4)ccc3c2)n(Cc2ccccc2)c2ccccc12
139 to 140 °C	CNc1c(S(=O)(=O)C(F)(F)F)c(C)nn1-c1c(Cl)cc(C(F)(F)F)cc1Cl
63 to 64 °C	CSC(=C[N+](=O)[O-])NCCSCc1nccs1
129 to 131 °C	CCc1cc(C(N)=O)nn1CC
275 to 276 °C	CON(C(=O)Nc1nc(OCC(F)(F)F)cc(OCC(F)(F)F)n1)c1ccc(Cl)cc1
146 °C	O=C1Nc2ccccc2OC1c1ccccc1 (configuration not stated)
58 to 61 °C	COC(=O)C(Cc1ccccc1)Oc1ccc2cc(-c3cnc(-c4cn(C)c5ccccc45)o3)ccc2c1 (configuration not stated)
159 to 161 °C	CCCn1cc(Cc2ccc(C(=O)OC)cc2OC)c2cc(C=C(C)C(=O)O)ccc21
132 °C	O=C(On1nnc2ccc(Cl)cc21)c1ccccc1
162 to 169 °C	Cc1ccc2c(c1)NC(=O)C(NC(=O)Nc1cccc(Cl)c1)CC2C1CCCCC1 (configuration not stated)
224 to 225 °C	CC(C)(C)c1cc(CCC(=O)NNC(=O)C=Cc2ccccc2)cc(C(C)(C)C)c1O

melting point	SMILES
173 to 174 °C	CC(C)(C)OC(=O)NC1CCc2cccc(-c3ccccc3)c2CC1=O (configuration not stated)
192 to 195 °C	CN1C(=O)CC[C@]2(C)c3ccc(CC(=O)Nc4ccccc4)cc3CC[C@@H]12
208 to 212 °C	CN(c1ccc2c(c1)S(=O)(=O)C=C(c1c(O)c3cc(F)ccc3n(CCC3CC3)c1=O)N2)S(C)(=O)=O
102 to 105 °C	O=C(NCc1ccccc1)c1ccnc(-n2ccc(O)cc2=O)c1
144 to 146 °C	CCCc1nc2c(N)nc(C)c(C)c2n1CCCC(C)=NOC
149 to 151 °C	c1ccc(-c2cc(NC3=NCCN3)cc3[nH]cnc23)cc1
148 to 150 °C	O=c1c(C=NO)c(Cl)nc2n1CCS2
216 °C	CC(CC(N)=O)(c1ccc(O)cc1)c1ccc(O)cc1
301 to 303 °C	CC1CCc2ccc(NC(=O)C(F)(F)F)c3c(=O)c(C(=O)O)cn1c23 (configuration not stated)
181 to 183 °C	CN1C(=O)CC[C@]2(C)c3ccc(-c4cccc([N+](=O)[O-])c4)cc3CC[C@@H]12
158 to 160 °C	Cc1nn(-c2cc(O)c(Cl)cc2F)c(C)c1C
139 to 141 °C	CCc1nc2c(-c3cc4ccoc4cc3C)ncnc2n1C(C1CC1)C1CC1
76.5 to 78 °C	CC(C)C(=O)CC(=O)c1ccc(C(=O)c2ccccc2)cc1
66 °C	CC(C)(SC(F)(F)F)C(=O)C(Oc1ccc(Cl)cc1)n1cncn1 (configuration not stated)
76 to 81 °C	COC(=O)[C@H](Cc1ccc(NC(=S)NCCc2ccccc2)cc1)NC(=O)[C@@H]1CCCN1S(=O)(=O)c1ccc(C)cc1
202 °C	CC(=O)Nc1cccc(-c2nc3ncccc3o2)c1
180 to 183 °C	CCOC(=O)C1=C(C)NC(c2cscn2)=NC1c1cccc(O)c1 (configuration not stated)
95 to 98 °C	CCCCOC(=O)C(CC(C)C)NC(=O)c1cc([N+](=O)[O-])cc([N+](=O)[O-])c1 (configuration not stated)
128 to 129 °C	COCn1c(-c2nccs2)c(Cl)c2cccc(NS(=O)(=O)c3cccs3)c21
244 to 246 °C	CC(=O)NCCCc1nc2cc(C3=NNC(=O)CC3C)ccc2[nH]1 (configuration not stated)
149 to 153 °C	CC(C)COc1ccc(S(C)(=O)=O)cc1C(=O)O
167 to 169 °C	Cn1c(CC#N)ccc1C(=O)c1ccc([N+](=O)[O-])cc1
173 to 175 °C	CCOc1ccc2c(c1)C(N)(c1ccccc1Cl)C(=O)N2 (configuration not stated)

melting point	SMILES
> 260 °C	O=C(Nc1nc2ccc(Sc3cnc4ncc(NCc5ccccc5)cn34)cc2s1)C1CC1
222 °C	CC1(C)CCC(C)(C)C2=C1C=C(CC#Cc1ccc(C(=O)O)cc1)CC2(O)OCc1ccc(C(F)(F)F)cc1 (configuration not stated)
211 to 212 °C	CN(c1cccc(C(F)(F)F)c1)c1nc2c(-c3cccc(C(=O)O)c3)cccc2n1C
120 to 121 °C	CCOC(=O)/C=C/c1cc2cc(OCc3nc(-c4ccccc4)oc3C)ccc2o1
101 to 103 °C	CC(=O)N(C)C1CCC(=O)c2ccccc21 (configuration not stated)
157 to 158 °C	CCOc1ccc(-c2ccc3c(c2)C=C(C(=O)OC)CCN3)cc1
208 to 210 °C	c1cncc(-c2ccc3nnn(Cc4ccc5ncccc5c4)c3n2)c1
> 310 °C	N#Cc1ccnc(C(N)=O)c1N
111 to 112 °C	COc1ccc(-c2cccc(C(=O)NCCO)c2)c2cc(Cc3cccc(C(F)(F)F)c3)oc12
126 to 127 °C	CN(C)CCNc1ccc(CNS(C)(=O)=O)c2sc3ccccc3c(=O)c12
116 °C	c1c2c(cc3c1OCO3)CN(CN1CCc3cc4c(cc3C1)OCO4)CC2
236 to 237 °C	COc1ccc(Sc2ccc([N+](=O)[O-])cc2)c(Cl)c1Cl
120 °C	COC(=O)c1ccc(OC)c(NC(=N)c2ccc(F)cc2F)c1
114 to 115 °C	COc1ccc(NC(=O)c2ccc(Br)s2)cc1N1CCN(C)CC1
102 to 104 °C	CCN(c1nc(C)cc(C(=O)O)n1)c1ccc(C(C)C)cc1Br
222 °C	FC(F)c1cc(-c2ccc(C(F)(F)F)cc2)nc2c(-c3ccncc3)cnn12
153 to 165 °C	COc1cncc(OC)c1CCCOc1cccnc1Cc1cccc(Br)c1
157 to 158 °C	CNC(=NC#N)NCCSCc1csc(NC(=S)NCC(F)(F)F)n1
110 to 112 °C	CCOC(=O)C(Cc1cc2c([N+](=O)[O-])cccc2[nH]1)[N+](=O)[O-] (configuration not stated)
85 to 90 °C	CCCn1ncc(C#N)c1N
259 to 260 °C	CC(C)(C)CC(NC(=O)c1ccccc1)Nc1c(Nc2cccnc2Cl)c(=O)c1=O (configuration not stated)
256 to 258 °C	CCc1cccc(C)c1CNc1cc(C(=O)NCCO)nc2c1nc(C)n2C

SMILES	melting point
CN(C(=O)Oc1cccc2c1OC(C)(C)C2)C(=O)N1CCCCC1	98 to 100 °C
CC1Cc2ccc(Cl)cc2C(c2ccc([N+](=O)[O-])cc2)=NN1 (configuration not stated)	132 to 135 °C
CCS(=O)(=O)Nc1cc(C2CCCCC2)cc2c1CCCC2c1c[nH]cn1 (configuration not stated)	207 to 209 °C
CN1CCC(c2cc3ccccc3c(=O)[nH]2)CC1	255 to 257 °C
COC(=O)COc1cccc2c1c(C(=O)C(N)=O)c(C)n2Cc1ccccc1	202 to 215 °C
Cc1nc(C(=O)N(C)C)c2n1-c1ccc(Cl)cc1C(c1ccccc1)=NC2	173 to 175 °C
